From DBAASP
In brackets after ≈: the same amount, converted by molar mass.

How the values were obtained:
Test in all cases: ≥ marks a high value that may be exact or a test limit, other limits are often not marked, values filed in µg/mL are converted to µM
[1] = system: Escherichia coli CMCC 44102
[2] = system: Pseudomonas aeruginosa ATCC 27853
[3] = system: Staphylococcus aureus CMCC 26003
[4] = system: Staphylococcus epidermidis ATCC 12228
Escherichia coli UB1005 = system: Escherichia coli UB1005
[5] = system: Salmonella enterica subsp. enterica serovar Pullorum C79-13
[6] = system: Salmonella enterica subsp. enterica serovar Typhi CMCC 50071
[7] = system: Salmonella enterica subsp. enterica serovar Typhimurium ATCC 14028
[8] = system: Salmonella enterica subsp. enterica serovar Typhimurium C77-31
[9] = system: Staphylococcus aureus ATCC 25923
[10] = system: Staphylococcus aureus ATCC 29213
[11] = system: Acinetobacter baumannii KCTC 2508
[12] = system: Bacillus subtilis KCTC 2217
[13] = system: Bacillus subtilis KCTC 3068
[14] = system: Enterococcus faecium ATCC 51559
[15] = system: Escherichia coli KCTC 1682
[16] = system: Pseudomonas aeruginosa CCARM 2095
[17] = system: Pseudomonas aeruginosa KCTC 1637
[18] = system: Salmonella typhimurium KCTC 1926
[19] = system: Staphylococcus aureus CCARM 3089
[20] = system: Staphylococcus aureus CCARM 3090
[21] = system: Staphylococcus aureus CCARM 3095
[22] = system: Staphylococcus aureus KCTC 1621
[23] = system: Staphylococcus epidermidis KCTC 1917
[24] = system: Acinetobacter baumannii ATCC 17978
[25] = system: Aspergillus flavus ATCC MYA-3651
Aspergillus fumigatus = system: Aspergillus fumigatus
Candida albicans 17-88 = system: Candida albicans 17-88
[26] = system: Candida albicans NRRL Y-326
Candida albicans = system: Candida albicans
Candida dubliniensis = system: Candida dubliniensis
Candida glabrata = system: Candida glabrata
[27] = system: Candida krusei NRRL Y-27803
Candida krusei = system: Candida krusei
[28] = system: Candida parapsilosis NRRL Y-1761
Candida parapsilosis = system: Candida parapsilosis
Candida tropicalis = system: Candida tropicalis
[29] = system: Cutibacterium acnes ATCC 11827
[30] = system: Cutibacterium acnes ATCC 6919
Cutibacterium acnes = system: Cutibacterium acnes
Debaryomyces hansenii = system: Debaryomyces hansenii
Enterobacter cloacae = system: Enterobacter cloacae
[31] = system: Fusarium solani NRRL 28548
[32] = system: Klebsiella pneumoniae ATCC 10031
Kluyveromyces lactis = system: Kluyveromyces lactis
[33] = system: Lichtheimia corymbifera NRRL 6251
[34] = system: Mucor circinelloides NRRL 3631
[35] = system: Pseudomonas aeruginosa ATCC 19660
[36] = system: Staphylococcus aureus ATCC 33592
Staphylococcus aureus MR = system: Staphylococcus aureus MR
Staphylococcus aureus = system: Staphylococcus aureus
[37] = system: Staphylococcus epidermidis ATCC 51625

CC[C@H](C)[C@H](NC(=O)[C@H](CCCN=C(N)N)NC(=O)[C@H](CCCN=C(N)N)NC(=O)[C@H](CC(C)C)NC(=O)[C@H](Cc1ccccc1)NC(=O)[C@@H]1CCCN1C(=O)[C@H](CCCN=C(N)N)NC(=O)[C@H](CCSC)NC(=O)[C@@H](NC(=O)[C@H](CCCCN)NC(=O)[C@H](CCCCN)NC(=O)[C@H](CS)NC(=O)[C@@H](NC(=O)CNC(=O)[C@@H]1CCCN1C(=O)[C@H](CC(C)C)NC(=O)[C@@H](NC(=O)[C@@H](N)CCCCN)[C@@H](C)CC)C(C)C)[C@@H](C)CC)C(=O)N[C@@H](CO)C(=O)N[C@@H](CCCCN)C(=O)N[C@@H](CC(=O)O)C(=O)N[C@H](C(=O)N[C@@H](CC(C)C)C(=O)N[C@H](C(=O)NCC(=O)N[C@@H](CCCCN)C(=O)N[C@@H](CCCCN)C(N)=O)[C@@H](C)O)[C@@H](C)CC [KILPGVCKKIMRPFLRRISKDILTGKK]
MIC [1]: 8 µM (≈ 25.1 µg/mL) | MIC [2]: 32 µM (≈ 100 µg/mL) | MIC [3]: 8 µM (≈ 25.1 µg/mL) | MIC [4]: 8 µM (≈ 25.1 µg/mL)

NCCCC[C@H](NC(=O)[C@H](CCCCN)NC(=O)[C@H](CCCN=C(N)N)NC(=O)[C@H](CCCN=C(N)N)NC(=O)[C@H](Cc1c[nH]c2ccccc12)NC(=O)[C@H](CCC(N)=O)NC(=O)[C@H](Cc1c[nH]c2ccccc12)NC(=O)[C@H](CCCN=C(N)N)NC(=O)[C@H](CCCN=C(N)N)NC(=O)[C@H](CCCCN)NC(=O)[C@@H](N)CCCCN)C(N)=O [KKRRWQWRRKK]
MIC (Escherichia coli UB1005): ≥ 32 µM | MIC [5]: ≥ 128 µM | MIC [6]: ≥ 128 µM | MIC [7]: > 128 µM | MIC [8]: ≥ 128 µM | MIC [9]: 128 µM (≈ 212 µg/mL) | MIC [10]: > 128 µM | MIC [4]: > 128 µM

CC(C)C[C@H](NC(=O)[C@H](CC(C)C)NC(=O)[C@@H]1CCCN1C(=O)[C@H](CCCCN)NC(=O)[C@H](CCCCN)NC(=O)[C@H](CC(C)C)NC(=O)[C@H](CC(C)C)NC(=O)[C@H](CCCCN)NC(=O)[C@H](CCCCN)NC(=O)[C@H](Cc1c[nH]c2ccccc12)NC(=O)[C@@H](N)CCCCN)C(=O)N[C@@H](CCCCN)C(N)=O [KWKKLLKKPLLK]
MIC [11]: 25 µM (≈ 38.1 µg/mL) | MIC [12]: 6.25 µM (≈ 9.51 µg/mL) | MIC [2]: > 25 µM

CC[C@H](C)[C@H](NC(=O)[C@@H](NC(=O)[C@H](Cc1cnc[nH]1)NC(=O)[C@H](CCCN=C(N)N)NC(=O)[C@H](C)NC(=O)[C@H](CCCN=C(N)N)NC(=O)[C@H](CC(C)C)NC(=O)[C@H](CO)NC(=O)[C@H](C)NC(=O)[C@H](CC(C)C)NC(=O)[C@@H](N)CC(N)=O)[C@@H](C)O)C(=O)N1CCC[C@H]1C(=O)N[C@@H](CCC(N)=O)C(=O)N[C@@H](CCCN=C(N)N)C(=O)N[C@@H](CCCCN)C(=O)N[C@@H](Cc1ccccc1)C(=O)NCC(=O)N[C@@H](CCCN=C(N)N)C(=O)N[C@@H](CCCN=C(N)N)C(=O)O [NLASLRARHTIPQRKFGRR]
MIC [13]: 6.3 µM (≈ 14.3 µg/mL) | MIC [14]: ≥ 50 µM | MIC [15]: 6.3 µM (≈ 14.3 µg/mL) | MIC [16]: 25 µM (≈ 56.9 µg/mL) | MIC [17]: 6.3 µM (≈ 14.3 µg/mL) | MIC [18]: 6.3 µM (≈ 14.3 µg/mL) | MIC [19]: 12.5 µM (≈ 28.5 µg/mL) | MIC [20]: 25 µM (≈ 56.9 µg/mL) | MIC [21]: 25 µM (≈ 56.9 µg/mL) | MIC [22]: 12.5 µM (≈ 28.5 µg/mL) | MIC [23]: 6.3 µM (≈ 14.3 µg/mL)

CC[C@H](C)[C@@H]1NC(=O)CNC(=O)[C@H](CCCCN)NC(=O)[C@H](Cc2ccc(O)cc2)NC(=O)[C@@H]2CSSC[C@H](NC1=O)C(=O)N[C@@H](Cc1ccc(O)cc1)C(=O)N[C@@H](CCCCN)C(=O)N[C@@H](CCCCN)C(=O)N[C@H](C(=O)N[C@@H](CCCCN)C(N)=O)CSSC[C@H](NC(=O)[C@H](Cc1c[nH]c3ccccc13)NC(=O)[C@@H](N)CCCN=C(N)N)C(=O)N[C@@H](Cc1ccccc1)C(=O)N[C@@H](CCCCN)C(=O)N[C@@H](C(C)C)C(=O)N2 [RWCFKVCYKGICYKKCK]
MIC [24]: 3.71 µM (≈ 7.98 µg/mL) | MIC [25]: 29.7 µM (≈ 63.9 µg/mL) | MIC (Aspergillus fumigatus): 29.7 µM (≈ 63.9 µg/mL) | MIC (Candida albicans 17-88): 7.4 µM (≈ 15.9 µg/mL) | MIC [26]: 5.25 µM (≈ 11.3 µg/mL) | MIC (Candida albicans): 10.5 µM (≈ 22.7 µg/mL) | MIC (Candida dubliniensis): 3.7 µM (≈ 7.96 µg/mL) | MIC (Candida glabrata): 10.5 µM (≈ 22.7 µg/mL) | MIC [27]: 10.5 µM (≈ 22.6 µg/mL) | MIC (Candida krusei): 5.23 µM (≈ 11.3 µg/mL) | MIC [28]: 14.8 µM (≈ 31.9 µg/mL) | MIC (Candida parapsilosis): 15 µM (≈ 32.3 µg/mL) | MIC (Candida tropicalis): 1.33 µM (≈ 2.86 µg/mL) | MIC [29]: 3.71 µM (≈ 7.98 µg/mL) | MIC [30]: 1.85 µM (≈ 3.99 µg/mL) | MIC (Cutibacterium acnes): 1.31 µM (≈ 2.82 µg/mL) | MIC (Debaryomyces hansenii): 7.4 µM (≈ 15.9 µg/mL) | MIC (Enterobacter cloacae): 3.71 µM (≈ 7.98 µg/mL) | MIC [31]: 0.927 µM (≈ 2 µg/mL) | MIC [32]: 3.71 µM (≈ 7.98 µg/mL) | MIC (Kluyveromyces lactis): 1.9 µM (≈ 4.09 µg/mL) | MIC [33]: 0.927 µM (≈ 2 µg/mL) | MIC [34]: 29.7 µM (≈ 63.9 µg/mL) | MIC [35]: 3.71 µM (≈ 7.98 µg/mL) | MIC [2]: 3.71 µM (≈ 7.98 µg/mL) | MIC [36]: 1.85 µM (≈ 3.99 µg/mL) | MIC (Staphylococcus aureus MR): 2.62 µM (≈ 5.64 µg/mL) | MIC (Staphylococcus aureus): 5.25 µM (≈ 11.3 µg/mL) | MIC [37]: 1.85 µM (≈ 3.99 µg/mL)
